Measured values published in article PMC7160673, “A Degenerate Peptide Library Approach to Reveal Sequence Determinants of Methyllysine-Driven Protein Interactions” (Frontiers in Cell and Developmental Biology, 2020).

What was measured:
Format in all cases: binding
53BP1 TTD = assay: Histone peptide microarray, 53BP1 TTD; details: 53BP1 TTD hits, average signal per peptide
Procedure, shortened: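 Printed histone peptide arrays; hybridization buffer 25 mM HEPES pH 7.5 / 100 mM NaCl / 0.5% BSA / 0.1% NP-40. Washes PBS + 0.1% Tween-20, 3 × 5 min per step. Detection: anti-GST 1:2,000 → AlexaFluor 647 secondary 1:5,000.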

CST 9733 (anti-H3K27me3) = assay: Histone peptide microarray, CST 9733; details: histone peptide array signal normalized to the highest peptide average per subarray, hits; CST 9733 LOT:14 dilution 1:5,000
[1] = system: ABClonal #A2355, anti-H3K4me1; assay: Histone peptide microarray, ABclonal A2355; details: Abclonal A2355 (anti-H3K4me1) hits
Description: Peptide microarrays were fabricated using an Aushon 2470 microarrayer and used as described ([Cornett et al., 2017]) with the following modifications. Protein and antibody hybridization steps were performed in buffer containing 25 mM HEPES pH 7.5, 100 mM NaCl, 0.5% BSA (w/v), and 0.1% NP-40. Slides were washed 3 × 5 min in PBS supplemented with 0.1% Tween-20 between each hybridization step. Antibodies used were primary anti-GST (Sigma #7781, 1:2,000 dilution) and an AlexaFluor 647-labeled secondary antibody (Life Technologies A-21245, 1:5,000 dilution). […] Full lists of peptides queried by array analysis are in Supplementary Table S2.

[2] = system: Active Motif #39161, anti-H3K9me3; assay: Histone peptide microarray, Active Motif 39161; details: Active Motif 39161 (anti-H3K9me3) hits
[3] = system: Millipore #07-449, anti-H3K27me3; assay: Histone peptide microarray, Millipore 07-449; details: Millipore 07-449 (anti-H3K27me3) hits, average signal per peptide
[4] = system: Abcam #ab8895, anti-H3K4me1; assay: Histone peptide microarray, Abcam ab8895; details: Abcam ab8895 (anti-H3K4me1) hits, average signal per peptide

Substance | Avg Signal (53BP1 TTD) | Avg Signal (CST 9733 (anti-H3K27me3)) | Avg Signal [1] | Avg Signal [2] | Avg Signal [3] | Avg Signal [4]
ACitTK(Me3)QTARK(Ac)STGGK(Ac)APRK(Ac)QL-K(Biot)-NH2 [H3.1Cit2K4me3K9acK14acK18ac] | 0.1358 | 0.00661 | 0.0002223 | 0.03654 | 0.0318 | 
AR(Me2a)TK(Me2)QTARKSTGGKAPRKQL-K(Biot)-NH2 [H3.1R2me2aK4me2] | 0.2614 |  | 0.325 | 0.0008405 | 0.008316 | 0.2655
AR(Me2a)TKQTARKSTGGKAPRKQL-K(Biot)-NH2 [Peptide H3.1R2me2a] | 0.05357 |  | 0.0139 | 0.00368 | 0.004979 | 0.1119
AR(Me2a)pTK(Me3)QTARKSTGGKAPRKQL-K(Biot)-NH2 [H3.1R2me2aT3pK4me3] | 0.03111 |  | 0.002084 |  | 0.007597 | 0.001405
ARTK(Ac)QTARKSTGGK(Ac)APRK(Ac)QL-K(Biot)-NH2 [H3.1K4acK14acK18ac] | 0.1071 |  | 0.005007 |  | 0.004978 | 0.001503
ARTK(Me2)QTARK(Ac)STGGK(Ac)APRK(Ac)QL-K(Biot)-NH2 [H3.1K4me2K9acK14acK18ac] | 0.5398 |  | 0.4093 |  | 0.02042 | 0.4999
ARTK(Me3)QTARK(Ac)pSTGGK(Ac)APRK(Ac)QL-K(Biot)-NH2 [H3.1K4me3K9acS10pK14acK18ac] | 0.1468 | 0.002027 | 0.02489 | 0.01388 | 0.01919 | 
ARTK(Me)QTARKSTGGKAPRK(Ac)QL-Peg-Biot [H3.1K4me1K18ac] |  | 1.355e-5 | 0.5708 |  | 0.002272 | 0.7343
Ac-APRKQLAT-NleAARKSAPS-Peg-Biot [Peptide H3.3K23-Nle] |  | 0.0003783 | 0.0003163 | 0.003975 | 0.001042 | 
Ac-APRKQLATKAARK(Me2)pSAPSTGG-Peg-Biot [H3.3K27me2S28p] |  | 0.004223 | 0.002617 | 0.009021 | 0.003767 | 
Ac-SGRGK(Ac)GGK(Me)GLGK(Ac)GGAK(Ac)RHRKVLR-Peg-Biot [H4K5acK8me1K12acK16ac] |  | 7.434e-5 | 0.003516 | 0.001214 |  | 0.006645
Ac-SGRGK(Ac)GGKGLGK(Ac)GGAKRHRKVLR-Peg-Biot [Peptide H4K5acK12ac] | 0.08013 |  | 0.01286 | 0.02456 | 0.01271 | 0.0343
Ac-SGRGKGGKGLGK(Me)GGAKRHRKVLR-Peg-Biot [Peptide H4K12me1] |  | 0.0001351 | 0.01394 | 0.001118 | 0.0009635 | 0.009402
Ac-SGRGKGGKGLGKGGAK(Ac)RHRKVLR-Peg-Biot [Peptide H4K16ac] | 0.07097 |  | 0.00197 |  | 0.001899 | 0.0007834
Ac-SGRGQGGQGLGK(Ac)GGAQRHRQVLR-Peg-Biot [H4K12acK5QK8QK16QK20Q] |  | 0.0003661 | 0.0006964 | 0.02202 | 0.0006189 | 0.02356
KSAPSpTGGVK(Me)KPHRYRPGT-G-K(Biot)-NH2 [H3.3K36meT32p] |  | 0.002226 | 0.00279 | 0.00231 | 0.0077 | 0.005437
